These results are taken from patent EP4793271A1, “NEUROPROTECTIVE AGENT” (National Center of Neurology and Psychiatry, priority 2023, dated 2025).

The target in experiment [1] is T1, nicotinamide phosphoribosyl transferase (NAMPT) (Homo sapiens, UniProt P43490).
T1 construct: purchased Medical & Biological Laboratories Co., Ltd. (MBL)
In words: NAMPT activity measurement (NMN fluorescence detection). As to conditions: NAMPT recombinant protein, 10 µM Nam; for IC50: read-out: Evaluation on NAMPT inhibitory. In kind it is biochemical. On the procedure: The compound of the present invention was evaluated for the ability to influence the activity of nicotinamide phosphoribosyl transferase (NAMPT) which is an enzyme that metabolizes nicotinamide (Nam), not the target SARM1.
The enzymatic reaction of NAMPT was carried out by adding NAMPT recombinant protein (manufactured by Medical & Biological Laboratories Co., Ltd. (MBL)) to a reaction solution containing the substrate Nam, phosphoribosylpyrophosphate (PRPP), ATP, and the like (composition: […] (pH = 7.4), 2 µM ATP, 0.5 µM PRPP, 0.02% BSA, 2 µM DTT, 1.2 µM MgCl2, and 10 µM Nam). The amount of the reaction product NMN was detected by detecting the fluorescent signal of a fluorescent substance obtained through the reaction of 2-acetylbenzofuran with NMN using SpectraMax M2 (Molecular Devices) (excitation: 421 nm, fluorescence: 480 nm) (Moriya et al, Chemical Communications 2013, 49 11500). The test compound was added at final concentrations of 10 µM, 3 µM, 1 µM, 300 nM, 100 nM, 30 nM, 10 nM, and 3 nM to the NMN synthesis reaction system described above. The NMN-derived fluorescent signal was normalized against a control group and plotted as the function of the test compound concentrations, and the compound was evaluated for its NAMPT inhibitory effect by calculating IC50.
The IC50 value was evaluated as ∘ for ≥1 µM and as Δ for ≥0.1 µM.

Experiment [2] relates to primary cultured cells of mouse fetus-derived dorsal root ganglia (DRGs). As to the kind of experiment: Suppression of axonal degeneration after axotomy in DRG explant culture. In kind it is cell-based. As to conditions: Mus musculus; minimum concentration at which axonal degeneration was suppressed (DI 0.3 or less); 24 hours after axotomy; read-out: Evaluation on protection against degeneration. Put shortly:
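Embryonic ICR mouse DRG explants were cultured 7–8 days in nicotinamide-free neuronal medium with NGF, then axotomized by removing the cell bodies. Compound (100 pM–10 µM final, 0.1% DMSO) was added within 30 min, and neurites were imaged 24 h later. The result is the lowest concentration giving degeneration index ≤0.3.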

For experiment [3], the target named is T2, hSARM1 (Homo sapiens, UniProt Q6SZW1).
T2 sequence (Q6SZW1 28-724): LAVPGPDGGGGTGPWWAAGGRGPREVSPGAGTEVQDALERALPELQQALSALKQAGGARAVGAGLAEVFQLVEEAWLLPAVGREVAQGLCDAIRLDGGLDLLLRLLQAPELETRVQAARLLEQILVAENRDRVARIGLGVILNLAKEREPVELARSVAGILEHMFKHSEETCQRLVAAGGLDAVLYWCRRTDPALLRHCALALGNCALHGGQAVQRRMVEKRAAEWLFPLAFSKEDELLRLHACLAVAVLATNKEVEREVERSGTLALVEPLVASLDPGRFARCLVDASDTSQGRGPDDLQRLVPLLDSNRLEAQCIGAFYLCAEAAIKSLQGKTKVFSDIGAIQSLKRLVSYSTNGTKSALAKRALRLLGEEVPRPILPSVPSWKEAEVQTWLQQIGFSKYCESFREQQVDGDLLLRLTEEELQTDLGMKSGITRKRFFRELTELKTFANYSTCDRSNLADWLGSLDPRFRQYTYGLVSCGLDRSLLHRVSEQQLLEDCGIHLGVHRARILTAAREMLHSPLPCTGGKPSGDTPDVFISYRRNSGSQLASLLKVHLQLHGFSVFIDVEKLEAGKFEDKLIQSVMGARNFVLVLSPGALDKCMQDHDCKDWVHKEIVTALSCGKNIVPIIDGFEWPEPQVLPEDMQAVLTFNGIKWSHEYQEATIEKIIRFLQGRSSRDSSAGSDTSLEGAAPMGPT
In words: Human SARM1 activity measurement in HEK293 cells transiently transfected with ΔN-hSARM1 (PC6 fluorescent probe). Details: expressed in transfected cells; host or cells: HEK293, pcDNA3 expression vector. As to conditions: inhibition rate; compound 30 µM; PC6 50 µM; HEK293 cells expressing ΔN-hSARM1; approximately 48 hours from transfection; read-out: Evaluation on hSARM1 inhibitory. In kind it is cell-based. The method, boiled down:
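HEK293 cells in nicotinamide-free DMEM with 5 μM nicotinamide, transiently transfected with mitochondrial-targeting-deleted ΔN-hSARM1; PC6 base-exchange fluorescent probe (50 μM) plus compound (30 μM) added ~8 h post-transfection. Fluorescence (ex 405/em 525 nm) read ~48 h from transfection; inhibition % versus transfected DMSO control, untransfected background subtracted.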

Where only a bound is given, the exact number is not on record here.

T1 sequence (P43490 whole entry, species assumed): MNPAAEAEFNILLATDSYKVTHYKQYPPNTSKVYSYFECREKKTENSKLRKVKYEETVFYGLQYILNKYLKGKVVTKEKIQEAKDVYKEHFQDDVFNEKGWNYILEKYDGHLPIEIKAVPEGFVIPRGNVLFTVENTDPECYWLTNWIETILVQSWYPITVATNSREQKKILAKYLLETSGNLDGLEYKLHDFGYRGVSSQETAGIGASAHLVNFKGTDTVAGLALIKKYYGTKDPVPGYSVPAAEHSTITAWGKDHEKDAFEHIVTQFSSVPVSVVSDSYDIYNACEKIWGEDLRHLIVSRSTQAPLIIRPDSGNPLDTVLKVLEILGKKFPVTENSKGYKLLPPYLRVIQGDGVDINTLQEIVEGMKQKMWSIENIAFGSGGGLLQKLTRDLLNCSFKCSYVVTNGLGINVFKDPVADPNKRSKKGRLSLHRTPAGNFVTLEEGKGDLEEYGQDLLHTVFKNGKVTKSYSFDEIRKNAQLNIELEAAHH

As for `O=C(NCc1ccc(NC(=O)c2ccncc2)nc1)c1cccnc1` [Compound 124], the “Evaluation on NAMPT inhibitory” value in experiment [1] is reported as “○”. The minimal effective concentration in experiment [2] was at most 0.01 µM. In addition, in experiment [3], the inhibition at 30 µM was above 75%.
As for `O=C(NCc1ccc(NC(=O)c2ccc3ccccc3c2)nc1)c1cccnc1` [Compound 127], in experiment [1], the IC50 is at least 0.1 µM. Moreover, the minimal effective concentration in experiment [2] is at most 0.01 µM. Besides, in experiment [3], the inhibition at 30 µM is above 75%.
In the case of `O=C(/C=C/c1cccnc1)Nc1ccc(CNC(=O)c2cccnc2)cn1` [compound 75], the IC50 in experiment [1] is at least 0.1 µM. Further, the minimal effective concentration in experiment [2] is at most 0.01 µM. Also, the inhibition at 30 µM in experiment [3] is above 75%.
As to `Cc1ccc(C(=O)Nc2ccc(CNC(=O)/C=C/c3cccnc3)cn2)cc1` [compound 78], in experiment [1], the “Evaluation on NAMPT inhibitory” value is “○”. Further, in experiment [2], the minimal effective concentration is at most 0.01 µM. In experiment [3], the inhibition at 30 µM was above 75%.
As to `Cc1ccc(C(=O)Nc2ccc(CNC(=O)c3cccnc3)cn2)cc1C` [Compound 134], the “Evaluation on NAMPT inhibitory” value in experiment [1] is on record as “○”. Moreover, the minimal effective concentration in experiment [2] was at most 0.01 µM. Also, the inhibition at 30 µM in experiment [3] was above 75%.
Regarding `O=C(/C=C/c1cccnc1)NCCOCCNC(=O)/C=C/c1cccnc1` [compound 37], in experiment [1], the “Evaluation on NAMPT inhibitory” value is on record as “○”. Besides, the minimal effective concentration in experiment [2] lay in the range of 0.01 to 0.1 µM. In experiment [3], the inhibition at 30 µM is above 75%.
On to `O=C(NCc1ccc(NC(=O)c2ccc(Cl)cc2)nc1)c1cccnc1` [Compound 118], for which the “Evaluation on NAMPT inhibitory” value in experiment [1] is listed as “○”. In experiment [2], the minimal effective concentration was at most 0.01 µM. The inhibition at 30 µM in experiment [3] was above 75%.
Regarding `C=Cc1ccc(C(=O)Nc2ccc(CNC(=O)c3cccnc3)cn2)cc1` [compound 80], the IC50 in experiment [1] was at least 0.1 µM. Also, the minimal effective concentration in experiment [2] was at most 0.01 µM. For the same molecule, the inhibition at 30 µM in experiment [3] was above 75%.
As to `O=C(/C=C/c1ccccc1)Nc1ccc(CNC(=O)c2cccnc2)cn1` [compound 74], the “Evaluation on NAMPT inhibitory” value in experiment [1] is given as “○”. Moreover, the minimal effective concentration in experiment [2] fell in the range of 0.01 to 0.1 µM. Besides, the inhibition at 30 µM in experiment [3] is above 75%.
As for `O=C(NCc1ccc(NC(=O)c2ccc3ncccc3c2)nc1)c1cccnc1` [Compound 122], the “Evaluation on NAMPT inhibitory” value in experiment [1] was “○”. For the same molecule, the minimal effective concentration in experiment [2] was at most 0.01 µM. Also, the inhibition at 30 µM in experiment [3] was above 75%.
The matching figures for `CC(=O)NCc1ccc(OCCCNC(=O)c2cccnc2)cc1` [compound 20]: “○”, 0.01 to 0.1 µM and above 75%.
With `O=C(NCc1ccc(NC(=O)c2ccc(OC(F)(F)F)cc2)nc1)c1cccnc1` [compound 87], in experiment [1], the “Evaluation on NAMPT inhibitory” value is given as “○”. Also, the minimal effective concentration in experiment [2] is at most 0.01 µM. Moreover, the inhibition at 30 µM in experiment [3] was above 50%.
As to `NCCOCCOCCCCCCCCNC(=O)c1cccnc1` [compound 97], the IC50 in experiment [1] was at least 0.1 µM. The minimal effective concentration in experiment [2] was at most 0.01 µM. The inhibition at 30 µM in experiment [3] is above 75%.
For `O=C(NCCCOCCOCCCNC(=O)c1cccnc1)c1ccccc1` [Compound 186], in experiment [1], the “Evaluation on NAMPT inhibitory” value was “○”. Besides, the minimal effective concentration in experiment [2] was in the range of 0.01 to 0.1 µM. Further, the inhibition at 30 µM in experiment [3] was above 25%.
In the case of `O=C(NCc1ccc(NC(=O)c2ccc(F)c(F)c2)nc1)c1cccnc1` [Compound 137], the “Evaluation on NAMPT inhibitory” value in experiment [1] is “○”. Also, in experiment [2], the minimal effective concentration was at most 0.01 µM. Moreover, the inhibition at 30 µM in experiment [3] was above 75%.
For the molecule `O=C(NCCOCCOc1ccccc1)c1cccnc1` [compound 98], the “Evaluation on NAMPT inhibitory” value in experiment [1] was “○”. Besides, the minimal effective concentration in experiment [2] was 0.01 to 0.1 µM. Also, in experiment [3], the inhibition at 30 µM is above 10%.
In the case of `O=C(NCc1cccc(CNC(=O)c2cccnc2)n1)c1ccccc1` [Compound 149], in experiment [1], the “Evaluation on NAMPT inhibitory” value is given as “○”. Further, the minimal effective concentration in experiment [2] lay within 0.1 to 1 µM. In experiment [3], the inhibition at 30 µM was above 25%.
With `O=C(NCc1ccc(NC(=O)c2cccnc2)nc1)c1cccnc1` [Compound 120], the “Evaluation on NAMPT inhibitory” value in experiment [1] is listed as “○”. Also, the minimal effective concentration in experiment [2] was at most 0.01 µM. For the same molecule, the inhibition at 30 µM in experiment [3] was above 25%.
